Experimental data reported in US6696407B1, “Huntington's disease treatment comprising administering aldose reductase inhibitors to increase striatal CNTF” (The Regents of the University of California, priority 1997, dated 2004).
Entries after “also recorded” stand apart in the source; their conditions may differ. Marks after values point to notes of the source that are not given here.

Tests used:
Type in all cases: in vivo, rat
[1] = Motor nerve conduction velocity (MNCV); conditions: Ponalrestat 50 mg/kg daily oral, two months
Procedure: These studies were conducted with the approval of the San Diego Veterans Administration Animal Studies Subcommittee. Female Sprague-Dawley rats (240-300 g; Charles River, San Diego, Calif.) were housed in cages with wire bottoms to reduce contact with urine and feces. Groups were established and fed either a 40% D-galactose diet or a control diet specially formulated by Purina that contained 40% solka floc, a nonnutritive fiber, to balance nutritional intake. All diets contained 100% of the micronutrients required by rats and, with water, were available ad libitum. Each of these diet groups contained animals that were treated with the ARI, Ponalrestat (50 mg/kg), daily by oral gavage. […] Under deep anesthesia, motor nerve conduction velocity (MNCV) was measured in the left hindlimb prior to removal of the sciatic nerve. […] Evoked responses were recorded with needle electrodes placed in the interosseous muscles of the ipsilateral foot, amplified (×100) with a P15 AC Amplifier (Grass Instruments Co, Quincy, Mass.) and recorded on a 5110 Storage Oscilloscope and 5D10 Waveform Digitizer (Tektronix, Inc., Beaverton, Oreg.). […] Data are presented as mean ±SD (N=8 to 10) and were analyzed with a one way ANOVA after which multiple comparisons were made with the Student-Newman-Keuls test. […] ARI-treated animals received a daily oral gavage (50 mg/kg) of Ponalrestat (ND-Not detected).

CNTF [2] = experiment: Striatal CNTF levels by ELISA; conditions: adult rats, oral 50 mg/kg/day for two months
Procedure: CNTF protein was determined with an ELISA that utilizes a monoclonal capture antibody which recognizes a non-C-terminal epitope on both rat and human CNTF (Regeneron, Tarrytown, N.Y.). The captured CNTF was recognized by a polyclonal rabbit anti-rCNTF reporter antibody. An alkaline phosphatase-tagged goat anti-rabbit IgG was used to generate the signal. In practice, 96-well Immulon plates were coated with capture antibody overnight, then blocked and washed. After overnight incubation of standards and samples, plates were washed and reporter antibody added. Following final washes, the reaction was developed using the GIBCO BRL ELISA amplification system substrate and amplifier. The reaction was stopped with 0.5 N H2SO4 and the plates read at two wavelengths (490 nm and 650 nm).
ARIs Toirestat and Ponalrestat were orally administered to adult rats at a dose of 50 mg/kg/day for two months as described in Example 1 and in Mizisin et al (1997) Diabetes 46: 647-652. For each rat, the left and right striatum were dissected and combined for homogenization in phosphate buffered saline. CNTF levels in extract preparations were then measured by ELISA, as described in Example 1. Four rats served as controls, and five rats each received Tolrestat and Ponalrestat. Five ELISA assays were run for each rat and one mean value derived for each rat.

aldose reductase = experiment: Sciatic nerve polyol content by gas chromatography
Procedure: (§1) These studies were conducted with the approval of the San Diego Veterans Administration Animal Studies Subcommittee. Female Sprague-Dawley rats (240-300 g; Charles River, San Diego, Calif.) were housed in cages with wire bottoms to reduce contact with urine and feces. Groups were established and fed either a 40% D-galactose diet or a control diet specially formulated by Purina that contained 40% solka floc, a nonnutritive fiber, to balance nutritional intake. All diets contained 100% of the micronutrients required by rats and, with water, were available ad libitum. Each of these diet groups contained animals that were treated with the ARI, Ponalrestat (50 mg/kg), daily by oral gavage. After two months, rats were anesthetized by intraperitoneal injection (1 ml/kg ip) of pentobarbital sodium (12.5 mg/ml) and diazepam (1.25 mg/ml) in bacteriostatic saline. Under deep anesthesia, motor nerve conduction velocity (MNCV) was measured in the left hindlimb prior to removal of the sciatic nerve. The proximal portion was processed for subsequent light microscopic examination and the distal portion used for gas chromatographic analysis of nerve polyols. The contralateral sciatic nerve was removed and used for assay of CNTF-like neurotrophic activity and either Northern blot or ELISA analysis of CNTF mRNA or protein, respectively.
For determination of water content and dry weight, distal segments of sciatic nerve were lightly blotted, weighed prior to freeze-drying and reweighed. Nerve polyols were measured by gas chromatography with α-methylmannoside as an internal standard (Mizisin et al., (1993) J. Neurol. Sci. 116:67-72) using a Hewlett Packard 5890 gas chromatograph (Hewlett Packard, Avondale, Pa.) fitted with a flame ionization detector and a 25 m×0.2 mm capillary column (Hewlett Packard Ultra 1). Nerve water and polyol contents are expressed as mg and nmol per mg nerve dry weight, respectively.
Data are presented as mean ±SD (N=8 to 10) and were analyzed with a one way ANOVA after which multiple comparisons were made with the Student-Newman-Keuls test. Mean dulcitol levels were compared with an unpaired, two-tailed t test. Control and animals received a diet containing 0% D-galactose and galactose animals a diet containing 40% D-galactose for two months.

CNTF [3] = experiment: Sciatic nerve CNTF protein by ELISA; conditions: P<0.05
Procedure: as §1, with “The proximal portion was processed for subsequent light microscopic examination and the distal portion used for gas chromatographic analysis of nerve polyols. The contralateral sciatic nerve was removed and used for assay of CNTF-like neurotrophic activity and either Northern blot or ELISA analysis of CNTF mRNA or protein, respectively.” left out
CNTF protein was determined with an ELISA that utilizes a monoclonal capture antibody which recognizes a non-C-terminal epitope on both rat and human CNTF (Regeneron, Tarrytown, N.Y.). […] The reaction was stopped with 0.5 N H2SO4 and the plates read at two wavelengths (490 nm and 650 nm).

[4] = sciatic nerve, 40% D-galactose diet rats, Ponalrestat 50 mg/kg daily oral, two months

Compound: O=C(O)Cc1nn(Cc2ccc(Br)cc2F)c(=O)c2ccccc12 [Ponalrestat, 3-(4-bromo-2-fluorobenzyl)-4-oxo-3H-phthalazin-1-ylacetic acid]
- MNCV ([1]; 40% D-galactose diet rats): 64.8 ± 5.1^a m/s
- MNCV ([1]; control diet rats): 63.9 ± 4.0^a m/s
- Increase in striatal CNTF activity level versus control group (CNTF [2]): significantly increased; also recorded: approximately three-fold
- Dulcitol accumulation (in words) (aldose reductase; galactose-fed rats): attenuated
- Nerve myo-inositol content (in words) (aldose reductase; galactose-fed rats): restored
- Dulcitol (aldose reductase; [4]): 12.2 ± 3.8 nmol/mg dry wt
- myo-Inositol (aldose reductase; [4]): 9.4 ± 1.9^a nmol/mg dry wt
- myo-Inositol (aldose reductase; sciatic nerve, control diet rats, Ponalrestat 50 mg/kg daily oral, two months): 12.3 ± 1.5^b nmol/mg dry wt
- Increase of CNTF detected by ELISA relative to untreated control rats (CNTF [3]; control animals): 50%
- Increase of CNTF detected by ELISA relative to untreated control rats (CNTF [3]; galactose-fed animals): 50%
